The source made the active and inactive calls. The rule behind the calls is not given here.
Columns and labels:
[1] = Dark cytotoxicity against human HeLa cells assessed as inhibition of cell viability incubated for 3 hrs by CCK8 assay; format: toxicity, cell-based
HeLa [2] = experiment: Phototoxicity against human HeLa cells assessed as inhibition of cell viability preincubated for 3 hrs followed by photo-irradiation of 54 J/cm2 for 24 hrs by CCK8 assay; format: functional, cell-based; settings: light or radiation study
[3] = Dark cytotoxicity against human HepG2 cells assessed as inhibition of cell viability incubated for 3 hrs by CCK8 assay; format: toxicity, cell-based
[4] = Drug uptake in human HeLa cells assessed as increase in red fluorescence signal at 5 uM incubated for 3 hrs by fluorescence imaging based analysis; format: ADME, cell-based
HeLa [5] = experiment: Antitumor activity against human HeLa cells xenografted in nude BALB/c nu/nu mouse assessed as decrease in tumor growth at 2.5 umol/kg, iv with light irradiation of 30 J/cm2 for 1 hr measured after 24 hrs; format: functional, organism-based; settings: dose 2.5 µmol/kg, time 25.0 hrs
HepG2 = experiment: Phototoxicity against human HepG2 cells assessed as inhibition of cell viability preincubated for 3 hrs followed by photo-irradiation of 54 J/cm2 for 24 hrs by CCK8 assay; format: functional, cell-based; settings: HepG2, light or radiation study
HeLa [6] = experiment: Induction of ROS generation in human HeLa cells assessed as increase in green fluorescence incubated for 3 hrs followed by light irradiation of 54 J/cm2 by H2DCFDA staining based analysis; format: functional, cell-based; settings: dose 25-200 nM
[7] = Drug uptake in human HeLa cells assessed as fold increase in fluorescence intensity at 5 uM incubated for 3 hrs by fluorescence imaging based analysis relative to control; format: ADME, cell-based
HeLa [8] = experiment: Induction of ROS generation in human HeLa cells without light irradiation at 200 nM incubated for 3 hrs by H2DCFDA staining based analysis; format: functional, cell-based
[9] = Drug uptake in mitochondria of human HeLa cells at 5 uM incubated for 3 hrs by MitoTracker Green FM dye based analysis; format: ADME
[10] = Drug uptake in lysosome of human HeLa cells at 5 uM incubated for 3 hrs by LysoTracker Green DND-26 dye based analysis; format: ADME, subcellular
[11] = Drug uptake in endoplasmic reticulum of human HeLa cells at 5 uM incubated for 3 hrs by ER-Tracker Green dye based analysis; format: ADME, subcellular
[12] = Drug uptake in lipid droplet of human HeLa cells at 5 uM incubated for 3 hrs by BODIPY 493/503 dye based analysis; format: ADME, subcellular
HeLa [13] = experiment: Induction of lipid peroxidation in human HeLa cells assessed as increase in green fluorescence with a light dose of 54 J/cm2 at 100 to 400 nM incubated for 3 hrs by BODIPY 581/591 C11 dye based analysis; format: functional, cell-based; settings: dose 100-400 nM
HeLa [14] = experiment: Induction of cell death in human HeLa cells under dark condition upto 400 nM incubated for 3 hrs by Calcein-AM/PI staining based analysis; format: functional
HeLa [15] = experiment: Induction of cell death in human HeLa cells assessed as increase in bright red signal at 400 nM incubated for 3 hrs followed by light irradiation of 54 J/cm2 by Calcein-AM/PI staining based analysis; format: functional
HeLa [16] = experiment: Induction of cell death in human HeLa cells assessed as increase in bright red signal at 400 nM incubated for 3 hrs followed by light irradiation of 54 J/cm2 in presence of Lip-1 inhibitor by Calcein-AM/PI staining based analysis; format: functional
HeLa [17] = experiment: Induction of cell death in human HeLa cells assessed as increase in bright red signal at 400 nM incubated for 3 hrs followed by light irradiation of 54 J/cm2 in presence of Fer-1 inhibitor by Calcein-AM/PI staining based analysis; format: functional
HeLa [18] = experiment: Induction of cell death in human HeLa cells assessed as increase in bright red signal at 400 nM incubated for 3 hrs followed by light irradiation of 54 J/cm2 in presence of DFO inhibitor by Calcein-AM/PI staining based analysis; format: functional
[19] = Biodistribution in liver of nude BALB/c nu/nu mouse bearing human HeLa cells at 2.5 umol/kg, iv measured for 3 hrs by IVIS analysis; format: ADME, organism-based; settings: in vivo, dose 2.5 µmol/kg
[20] = Biodistribution in lung of nude BALB/c nu/nu mouse bearing human HeLa cells at 2.5 umol/kg, iv measured for 3 hrs by IVIS analysis; format: ADME, organism-based; settings: in vivo, dose 2.5 µmol/kg
[21] = Biodistribution in spleen of nude BALB/c nu/nu mouse bearing human HeLa cells at 2.5 umol/kg, iv measured for 3 hrs by IVIS analysis; format: ADME, organism-based; settings: in vivo, dose 2.5 µmol/kg
[22] = Biodistribution in kidney of nude BALB/c nu/nu mouse bearing human HeLa cells at 2.5 umol/kg, iv measured for 3 hrs by IVIS analysis; format: ADME, organism-based; settings: in vivo, dose 2.5 µmol/kg
HeLa [23] = experiment: Biodistribution in human HeLa cells xenografted in nude BALB/c nu/nu mouse at 2.5 umol/kg, iv measured for 3 hrs by IVIS analysis; format: ADME, organism-based; settings: in vivo, dose 2.5 µmol/kg
[24] = Biodistribution in skin of nude BALB/c nu/nu mouse bearing human HeLa cells at 2.5 umol/kg, iv measured for 3 hrs by IVIS analysis; format: ADME, organism-based, Skin of body; settings: in vivo, dose 2.5 µmol/kg
[25] = Toxicity in nude BALB/c nu/nu mouse bearing human HeLa cells assessed as steady body weight increment at 2.5 umol/kg, iv with light irradiation at 30 J/cm2 for 1 hr measured for 24 hrs; format: organism-based; settings: in vivo, 25 h, dose 2.5 µmol/kg
[26] = Toxicity in nude BALB/c nu/nu mouse bearing human HeLa cells assessed as drug tolerance at 2.5 umol/kg, iv with light irradiation of 30 J/cm2 for 1 hr measured for 24 hrs; format: organism-based; settings: in vivo, 25 h, dose 2.5 µmol/kg
[27] = Toxicity in nude BALB/c nu/nu mouse bearing human HeLa cells assessed as pathological change in heart at 2.5 umol/kg, iv with light irradiation of 30 J/cm2 for 1 hr measured for 24 hrs by H and E staining based analysis; format: organism-based; settings: in vivo, 25 h, dose 2.5 µmol/kg
[28] = Toxicity in nude BALB/c nu/nu mouse bearing human HeLa cells assessed as pathological change in lung at 2.5 umol/kg, iv with light irradiation of 30 J/cm2 for 1 hr measured for 24 hrs by H and E staining based analysis; format: organism-based; settings: in vivo, 25 h, dose 2.5 µmol/kg
[29] = Toxicity in nude BALB/c nu/nu mouse bearing human HeLa cells assessed as pathological change in liver at 2.5 umol/kg, iv with light irradiation of 30 J/cm2 for 1 hr measured for 24 hrs by H and E staining based analysis; format: organism-based; settings: in vivo, 25 h, dose 2.5 µmol/kg
[30] = Toxicity in nude BALB/c nu/nu mouse bearing human HeLa cells assessed as pathological change in spleen at 2.5 umol/kg, iv with light irradiation of 30 J/cm2 for 1 hr measured for 24 hrs by H and E staining based analysis; format: organism-based; settings: in vivo, 25 h, dose 2.5 µmol/kg
[31] = Toxicity in nude BALB/c nu/nu mouse bearing human HeLa cells assessed as pathological change in kidney at 2.5 umol/kg, iv with light irradiation of 30 J/cm2 for 1 hr measured for 24 hrs by H and E staining based analysis; format: organism-based; settings: in vivo, 25 h, dose 2.5 µmol/kg
HeLa [32] = experiment: Antitumor activity against human HeLa cells xenografted in nude BALB/c nu/nu mouse assessed as pathological damage in tumor at 2.5 umol/kg, iv with light irradiation of 30 J/cm2 for 1 hr measured after 24 hrs by H and E staining based analysis; format: functional, organism-based; settings: dose 2.5 µmol/kg, time 25.0 hrs

COc1ccc(C2=[N+]3C(=Nc4c(-c5ccncc5)c(I)c(-c5ccc(OC)cc5)n4[B-]3(F)F)C(c3ccccc3)=C2)cc1
IC50 at 3 h [1]: 20600 nM
IC50 (HeLa [2]): 50.1 nM

COc1ccc(C2=[N+]3C(=Nc4c(-c5cccnc5)c(I)c(-c5ccc(OC)cc5)n4[B-]3(F)F)C(c3ccccc3)=C2)cc1
IC50 at 3 h [1]: 17100 nM
IC50 (HeLa [2]): 42.9 nM

COc1ccc(C2=[N+]3C(=Nc4c(-c5ccccc5)c5c(n4[B-]3(F)F)-c3ccc(OC)cc3CC5)C(c3ccccc3)=C2I)cc1
IC50 at 3 h [1]: > 50000 nM
IC50 at 3 h [3]: > 50000 nM
Drug uptake [4]: Active
Activity (HeLa [5]): Active

COc1ccc(C2=[N+]3C(=Nc4c(-c5cccnc5)c5c(n4[B-]3(F)F)-c3ccc(OC)cc3CC5)C(c3ccccc3)=C2I)cc1
IC50 at 3 h [1]: 37400 nM
IC50 (HeLa [2]): 19.1 nM
IC50 at 3 h [3]: > 50000 nM
IC50 (HepG2): 7.5 nM

COc1ccc(-c2c(I)c(-c3ccc[n+](C)c3)c3n2[B-](F)(F)[N+]2=C4C(=C(c5ccccc5)C2=N3)CCc2cc(OC)ccc24)cc1
IC50 at 3 h [1]: 1200 nM
IC50 (HeLa [2]): 6 nM

COc1ccc(-c2c(I)c(-c3cccnc3)c3n2[B-](F)(F)[N+]2=C4C(=C(c5ccccc5)C2=N3)CCc2cc(OC)ccc24)cc1
IC50 at 3 h [1]: > 50000 nM
IC50 (HeLa [2]): 10.4 nM
IC50 at 3 h [3]: > 50000 nM
IC50 (HepG2): 6.9 nM
Activity (HeLa [6]): Dose-Dependent Effect
fold change (FC) [7]: 6
Activity (HeLa [8]): inactive
Drug uptake [9]: Not Active
Drug uptake [10]: Not Active
Drug uptake [11]: Not Active
Drug uptake [12]: Active
Activity (HeLa [13]): Active
Activity (HeLa [14]): inactive
Activity (HeLa [15]): Active
Activity (HeLa [16]): inactive
Activity (HeLa [17]): inactive
Activity (HeLa [18]): Active
Drug uptake [19]: Active
Drug uptake [20]: Active
Drug uptake [21]: Active
Drug uptake [22]: Active
Drug uptake (HeLa [23]): Active
Drug uptake [24]: Not Active
Activity (HeLa [5]): Active
Activity [25]: Non-Toxic
Activity [26]: Non-Toxic
Activity [27]: Non-Toxic
Activity [28]: Non-Toxic
Activity [29]: Non-Toxic
Activity [30]: Non-Toxic
Activity [31]: Non-Toxic
Activity (HeLa [32]): Active

COc1ccc(C2=[N+]3C(=Nc4c(-c5ccc[n+](C)c5)c5c(n4[B-]3(F)F)-c3ccc(OC)cc3CC5)C(c3ccccc3)=C2I)cc1
IC50 at 3 h [1]: 2300 nM
IC50 (HeLa [2]): 41.8 nM

COc1ccc(-c2c(I)c(-c3cccc[n+]3C)c3n2[B-](F)(F)[N+]2=C4C(=C(c5ccccc5)C2=N3)CCc2cc(OC)ccc24)cc1
IC50 at 3 h [1]: 6100 nM
IC50 (HeLa [2]): 118 nM

COc1ccc(C2=[N+]3C(=Nc4c(-c5ccncc5)c5c(n4[B-]3(F)F)-c3ccc(OC)cc3CC5)C(c3ccccc3)=C2I)cc1
IC50 at 3 h [1]: 37200 nM
IC50 (HeLa [2]): 33.9 nM
IC50 at 3 h [3]: > 50000 nM
IC50 (HepG2): 35.8 nM

COc1ccc(C2=[N+]3C(=Nc4c(-c5ccccc5)c(Br)c(-c5ccc(OC)cc5)n4[B-]3(F)F)C(c3ccccc3)=C2Br)cc1
IC50 at 3 h [1]: 41700 nM
IC50 (HeLa [2]): 64.2 nM

COc1ccc(-c2c(I)c(-c3ccccn3)c3n2[B-](F)(F)[N+]2=C4C(=C(c5ccccc5)C2=N3)CCc2cc(OC)ccc24)cc1
IC50 at 3 h [1]: 17900 nM
IC50 (HeLa [2]): 12.1 nM
IC50 at 3 h [3]: > 50000 nM
IC50 (HepG2): 7.2 nM

COc1ccc(-c2c(I)c(-c3cc[n+](C)cc3)c3n2[B-](F)(F)[N+]2=C4C(=C(c5ccccc5)C2=N3)CCc2cc(OC)ccc24)cc1
IC50 at 3 h [1]: 3300 nM
IC50 (HeLa [2]): 129 nM

COc1ccc(C2=[N+]3C(=Nc4c(-c5ccc[n+](C)c5)c(I)c(-c5ccc(OC)cc5)n4[B-]3(F)F)C(c3ccccc3)=C2)cc1
IC50 at 3 h [1]: 11200 nM
IC50 (HeLa [2]): 214 nM

COc1ccc(-c2c(I)c(-c3ccncc3)c3n2[B-](F)(F)[N+]2=C4C(=C(c5ccccc5)C2=N3)CCc2cc(OC)ccc24)cc1
IC50 at 3 h [1]: > 50000 nM
IC50 (HeLa [2]): 6.1 nM
IC50 at 3 h [3]: > 50000 nM
IC50 (HepG2): 11.1 nM

C=Cc1c(C)c2cc3nc(c(CC(=O)O)c4[nH]c(cc5nc(cc1[nH]2)C(C)=C5CC)c(C)c4C(=O)O)[C@@H](CCC(=O)O)[C@@H]3C [CHLORIN E6]
IC50 at 3 h [1]: > 50000 nM
IC50 at 3 h [3]: > 50000 nM
Activity (HeLa [5]): inactive

— ChEMBL document CHEMBL5579882, “Synthesis and Photodynamic Activities of Pyridine- or Pyridinium-Substituted Aza-BODIPY Photosensitizers” (J Med Chem, 2024)
